# Measurements taken from US20080293712A1, “Benzo[C][2,7]Naphtyridine Derivatives, Methods of Making Thereof and Methods of Use Thereof” (WYETH, priority 2007, published 2008).
# What was measured:
# Assay type in all cases: biochemical
# PDK-1 = target: T1, PDK-1 (Homo sapiens, UniProt O15530); assay: PDK-1 kinase inhibition ELISA assay (phosphorylation of His6-tagged SGK1 S422D by PDK-1); conditions: PDK-1 ELISA, Table 11; read-out: Average IC50
# T1 sequence (O15530 1-556): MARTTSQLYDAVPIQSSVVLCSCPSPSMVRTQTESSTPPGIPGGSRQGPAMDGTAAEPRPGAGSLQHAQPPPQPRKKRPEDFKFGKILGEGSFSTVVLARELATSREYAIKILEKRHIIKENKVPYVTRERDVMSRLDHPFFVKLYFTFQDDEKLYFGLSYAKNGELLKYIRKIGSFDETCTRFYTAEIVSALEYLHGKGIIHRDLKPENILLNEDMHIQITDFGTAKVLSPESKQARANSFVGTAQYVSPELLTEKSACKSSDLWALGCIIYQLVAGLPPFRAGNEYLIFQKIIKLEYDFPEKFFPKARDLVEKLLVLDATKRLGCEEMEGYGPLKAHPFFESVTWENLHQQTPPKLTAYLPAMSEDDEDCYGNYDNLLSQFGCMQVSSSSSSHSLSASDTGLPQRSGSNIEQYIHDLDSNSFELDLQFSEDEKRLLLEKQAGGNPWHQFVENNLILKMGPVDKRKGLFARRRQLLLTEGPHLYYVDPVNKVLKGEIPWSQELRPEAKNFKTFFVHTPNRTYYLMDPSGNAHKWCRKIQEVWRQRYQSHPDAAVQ
# Protocol: In an in vitro assay, His6-tagged SGK1 with S422D mutation (formerly Upstate Biotech, now Millipore) on Thr256 is allowed to be phosphorylated by PDK-1 in the presence of a Benzo[c][2,7]naphthyridine Derivative. After 20 minutes, the reaction is quenched via the addition of urea. The His6-tagged SGK1 is then bound to 96 well Ni-NTA HisSorb plates (Quiagen, Inc., Valencia, Calif.) and phosphorylated SGK1 is quantitatively detected using rabbit derived anti-phospho SGK antibody (Cell Signaling Technology, Danvers, Mass.) as the primary antibody and horseradish peroxidase (HRP)—coupled anti-rabbit antibody (formerly Zymed, now Invitrogen, Carlsbad, Calif.) as the secondary antibody. HRP is then detected using a chemiluminescent substrate (Pierce Chemical Co., Woburn, Mass.).
# Akt1 = Akt1 (Homo sapiens, UniProt P31749); assay: Akt1 kinase inhibition, Z'-LYTE FRET assay; conditions: 100 μM ATP
# Excerpt: (§1) The ability of illustrative Benzo[c][2,7]naphthyridine Derivatives to inhibit PKA, Akt1, S6K in vitro can be determined using a Fluorescence Resonance Energy Transfer (FRET) assay, such as a Z′-LYTE™ Kinase Assay Platform, commercially available from Invitrogen (c.f. Rodems et al., ASSAY Drug Devel. Technol. 1:9-19 (2002) and Zhang et al., J. Biomol. Screen. 4:67-73 (1999)). Z′-Lyte™ assay is an in vitro FRET-based assay that utilizes differential sensitivity of phosphorylated and non-phosphorylated peptides to proteolytic cleavage. The peptide substrate (also available from Invitrogen for each of PKA, Akt1 and S6K) is labeled with two different fluorophores, a fluorescence donor at one end of the peptide and a fluorescence acceptor at the other end of the peptide. In the primary kinase reaction, the kinase phosphorylates the peptide substrate in the presence of ATP. In the secondary reaction, a site-specific protease recognizes and cleaves non-phosphorylated peptides, but not phosphorylated peptides. Cleavage disrupts FRET between the donor and acceptor fluorophores on the peptide, whereas uncleaved phosphorylated peptides maintain FRET. Based on a formula that uses the ratio of donor emission (at 460 nm) to acceptor emission (at […]) after excitation of the donor fluorophore at 400 nm, the extent of phosphorylation of the peptide substrates is calculated. IC50 values of illustrative Benzo[c][2,7]naphthyridine Derivatives, shown in Table 12, are calculated using LSW Data Analysis package add-in for Excel (Microsoft).
# S6K = S6K (Homo sapiens, UniProt P23443); assay: S6K kinase inhibition, Z'-LYTE FRET assay; conditions: 100 μM ATP
# Excerpt: as §1
# PKA = PKA (Homo sapiens, UniProt P17612); assay: PKA kinase inhibition, Z'-LYTE FRET assay
# Excerpt: Z′-Lyte™ assay is an in vitro FRET-based assay that utilizes differential sensitivity of phosphorylated and non-phosphorylated peptides to proteolytic cleavage. The peptide substrate (also available from Invitrogen for each of PKA, Akt1 and S6K) is labeled with two different fluorophores, a fluorescence donor at one end of the peptide and a fluorescence acceptor at the other end of the peptide. In the primary kinase reaction, the kinase phosphorylates the peptide substrate in the presence of ATP. In the secondary reaction, a site-specific protease recognizes and cleaves non-phosphorylated peptides, but not phosphorylated peptides. Cleavage disrupts FRET between the donor and acceptor fluorophores on the peptide, whereas uncleaved phosphorylated peptides maintain FRET. Based on a formula that uses the ratio of donor emission (at 460 nm) to acceptor emission (at 535 nM) after excitation of the donor fluorophore at 400 nm, the extent of phosphorylation of the peptide substrates is calculated.
# [1] = target: T2, human PKCθ full length enzyme (Homo sapiens, UniProt Q04759); assay: PKCθ kinase inhibition, IMAP fluorescence polarization assay; conditions: 6 μM ATP
# T2 construct: human PKCθ full length enzyme; purchased Panvera, Madison, Wis., now Invitrogen, Carlsbad, Calif; P2996
# Excerpt: The ability of illustrative Benzo[c][2,7]naphthyridine Derivatives to inhibit PKCθ can be determined using an IMAP Assay (Molecular Devices Corporation, Sunnyvale, Calif.). The materials used include the following: human PKCθ full length enzyme (Panvera, Madison, Wis., now Invitrogen, Carlsbad, Calif., Cat. No. P2996); substrate peptide: 5FAM-[…]-OH (Molecular Devices, Cat. No. RP7032); ATP (Sigma-Aldrich, St. Louis, Mo., Sigma Cat. No. A2383); DTT (e.g., Pierce, now Fisher Scientific, Waltham, Mass., Pierce Cat. No. 20291); 5× kinase reaction buffer (Molecular Devices, Cat. No. R7209); 5× binding buffer A (Molecular Devices, Cat. No. R7282), 5× binding buffer B (Molecular Devices, Cat. No. R7209); IMAP Beads (Molecular Devices, Cat. No. R7284); and 384-well plates (Corning Costar, Acton, Mass., Cat. No. 3710). The reaction buffer is prepared by diluting the 5× stock reaction buffer and adding DTT to obtain a concentration of 3.0 mM. The binding buffer is prepared by diluting the 5× binding buffer A. A master mix solution is prepared using a 90% dilution of the reaction buffer containing 2×ATP (12 μM) and 2× peptide (200 nM). […] The final concentration of compound is 2× and 10% DMSO. DMSO is added to the rest of the master mix to increase the concentration to 10%. 10 μl of the master mix containing 10% DMSO is added to the rest of the wells on the plate except the 2nd column. 20 μl is transferred from the first column to the 2nd column. The compounds are serially diluted in 2:1 ratio starting from the 2nd column. A 2× (2 nM) PKCθ solution is made in the reaction buffer. 10 μl of the PKCθ solution is added to every well to achieve these final concentrations: PKCθ—1 nM; ATP—6 μM; peptide—100 nM; DMSO—5%. Samples are incubated for 25 minutes at room temperature. The binding reagent is prepared by diluting the beads in 1× binding buffer to 800:1. 50 μl of the binding reagent is added to every well and incubated for 20 minutes. Fluorescence polarization is measured using EnVision™ 2100 multilabel reader (PerkinElmer Life Sciences, Wellesley, Mass.). Wells with no ATPs and wells with no enzymes are used as controls.
# Chain of S6K (P23443 whole entry): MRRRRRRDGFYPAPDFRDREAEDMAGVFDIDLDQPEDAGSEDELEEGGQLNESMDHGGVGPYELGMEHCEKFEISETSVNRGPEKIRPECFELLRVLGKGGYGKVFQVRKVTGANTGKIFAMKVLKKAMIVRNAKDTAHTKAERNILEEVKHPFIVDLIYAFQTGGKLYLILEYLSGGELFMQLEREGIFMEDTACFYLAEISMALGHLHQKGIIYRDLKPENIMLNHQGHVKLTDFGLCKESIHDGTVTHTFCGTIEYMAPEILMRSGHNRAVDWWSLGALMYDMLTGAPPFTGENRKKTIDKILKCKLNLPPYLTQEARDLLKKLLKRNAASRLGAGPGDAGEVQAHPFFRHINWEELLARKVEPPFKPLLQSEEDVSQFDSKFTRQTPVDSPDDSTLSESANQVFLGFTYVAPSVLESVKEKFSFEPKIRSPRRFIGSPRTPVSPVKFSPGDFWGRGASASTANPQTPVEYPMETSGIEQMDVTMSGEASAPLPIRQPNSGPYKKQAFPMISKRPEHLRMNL
# Chain of Akt1 (P31749 whole entry, species assumed): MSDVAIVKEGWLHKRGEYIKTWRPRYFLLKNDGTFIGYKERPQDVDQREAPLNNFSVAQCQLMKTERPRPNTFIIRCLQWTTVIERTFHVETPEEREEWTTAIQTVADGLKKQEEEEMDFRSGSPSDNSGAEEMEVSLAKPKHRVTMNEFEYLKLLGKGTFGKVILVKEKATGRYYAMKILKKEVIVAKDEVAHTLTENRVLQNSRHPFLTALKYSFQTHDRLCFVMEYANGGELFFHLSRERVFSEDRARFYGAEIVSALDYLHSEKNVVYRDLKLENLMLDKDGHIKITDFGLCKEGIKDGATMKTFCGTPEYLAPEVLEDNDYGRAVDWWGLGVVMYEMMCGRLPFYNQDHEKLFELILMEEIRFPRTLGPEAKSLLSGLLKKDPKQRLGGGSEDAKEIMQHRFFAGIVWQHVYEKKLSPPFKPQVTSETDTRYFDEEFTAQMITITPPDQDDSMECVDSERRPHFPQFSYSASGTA
# T2 sequence (Q04759 whole entry): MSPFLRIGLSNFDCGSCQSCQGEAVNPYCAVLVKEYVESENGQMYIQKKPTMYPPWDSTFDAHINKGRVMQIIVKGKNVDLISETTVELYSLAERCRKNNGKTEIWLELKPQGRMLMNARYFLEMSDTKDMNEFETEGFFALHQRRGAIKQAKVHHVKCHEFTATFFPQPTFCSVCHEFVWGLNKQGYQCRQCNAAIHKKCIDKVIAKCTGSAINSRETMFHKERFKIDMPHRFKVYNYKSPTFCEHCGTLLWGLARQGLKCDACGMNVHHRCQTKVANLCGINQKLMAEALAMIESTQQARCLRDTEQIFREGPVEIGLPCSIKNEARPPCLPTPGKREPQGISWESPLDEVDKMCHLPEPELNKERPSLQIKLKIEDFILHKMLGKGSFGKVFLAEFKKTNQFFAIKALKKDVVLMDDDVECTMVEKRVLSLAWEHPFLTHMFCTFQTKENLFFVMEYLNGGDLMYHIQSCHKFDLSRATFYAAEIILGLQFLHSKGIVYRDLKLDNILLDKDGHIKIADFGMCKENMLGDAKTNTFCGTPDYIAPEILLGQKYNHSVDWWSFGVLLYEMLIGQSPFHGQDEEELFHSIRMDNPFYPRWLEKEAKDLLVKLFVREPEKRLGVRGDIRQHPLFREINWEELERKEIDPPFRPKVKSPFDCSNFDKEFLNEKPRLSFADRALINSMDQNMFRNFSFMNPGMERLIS
SMILES,IC50 (PDK-1) [nM],IC50 (Akt1) [nM],IC50 (S6K) [nM],IC50 (PKA; 20 μM ATP) [nM],IC50 (PKA; 100 μM ATP) [nM],IC50 [1] [nM]
"COc1cc2c(cc1OCCCl)ncc1c(N)nc(-n3ccnc3)cc12 [Ia-21, 8-(2-chloroethoxy)-2-(1H-imidazol-1-yl)-9-methoxybenzo[c][2,7]naphthyridin-4-amine]",65,300,1560,> 20000,> 2000,–
"COc1cc2ncc3c(N)nc(-c4cncc(OC[C@@H](N)Cc5ccc(O)cc5)c4)cc3c2cc1OC [Ib-53, 4-((2S)-2-Amino-3-{[5-(4-amino-8,9-dimethoxybenzo[c]-2,7-naphthyridin-2-yl)pyridin-3-yl]oxy}propyl)phenol]",17,15,86,400,> 2000,–
"Nc1nc(-c2cncc(OC[C@@H](N)Cc3ccccc3)c2)cc2c1cnc1cc(C#CCCn3ccnc3)ccc12 [Ia-5, 2-(5-{[(2S)-2-Amino-3-phenylpropyl]oxy}pyridin-3-yl)-8-[4-(1H-imidazol-1-yl)but-1-yn-1-yl]benzo[c]-2,7-naphthyridin-4-amine]",–,500,520,340,872,–
"COc1cc2ncc3c(N)nc(-c4cncc(OC[C@@H](N)COCc5ccccc5)c4)cc3c2cc1OC [Ib-51, 2-(5-{[(2S)-2-amino-3-(benzyloxy)propyl]oxy}pyridin-3-yl)-8,9-dimethoxybenzo[c]-2,7-naphthyridin-4-amine]",5,< 160,60,340,712,–
"Nc1nc(-n2ccnc2)cc2c1cnc1cc(/C=C/CCN3CCCC3)ccc12 [Ia-24, 2-(1H-imidazol-1-yl)-8-[(1E)-4-pyrrolidin-1-ylbut-1-en-1-yl]benzo[c]-2,7-naphthyridin-4-amine]",97,75,1030,240,> 2000,–
"COc1cc2ncc3c(N)nc(-c4cncc(OC[C@H]5CCCN5)c4)cc3c2cc1OC [Ib-61, 8,9-dimethoxy-2-{5-[(2R)-pyrrolidin-2-ylmethoxy]pyridin-3-yl}benzo[c]-2,7-naphthyridin-4-amine]",43,250,7 to 82,1500,> 2000,–
"CCSc1cc2ncc3c(N)nc(-c4cncc(OC[C@@H](N)Cc5ccccc5)c4)cc3c2cc1OC [Ia-40, 2-(5-{[(2S)-2-amino-3-phenylpropyl]oxy}pyridin-3-yl)-8-(ethylthio)-9-methoxybenzo[c]-2,7-naphthyridin-4-amine]",44.5,1000,–,> 20000,–,525
"COc1cc2c(cc1O)ncc1c(N)nc(-n3ccnc3)cc12 [Ia-33, 4-Amino-2-(1H-imidazol-1-yl)-9-methoxybenzo[c]-2,7-naphthyridin-8-ol]",90,2000,> 2000,2500,> 2000,–
"COc1cc2ncc3c(N)nc(-c4cncc(OC[C@H](N)CN5Cc6ccccc6C5)c4)cc3c2cc1OC [Ib-48, 2-(5-{[(2R)-2-amino-3-(1,3-dihydro-2H-isoindol-2-yl)propyl]oxy}pyridin-3-yl)-8,9-dimethoxybenzo[c]-2,7-naphthyridin-4-amine]",34,400,405,2700,> 2000,–
"COc1cc2ncc3c(N)nc(-c4cncc(OC[C@@H](N)Cc5ccccc5Cl)c4)cc3c2cc1OC [Ib-52, 2-(5-{[(2S)-2-amino-3-(2-chlorophenyl)propyl]oxy}pyridin-3-yl)-8,9-dimethoxybenzo[c]-2,7-naphthyridin-4-amine]",8,6.4,106,45,793,–
"COc1cc2c(cc1OCCN1CCCC1)ncc1c(N)nc(-n3ccnc3)cc12 [Ia-12, 2-(1H-imidazol-1-yl)-9-methoxy-8-(2-pyrrolidin-1-ylethoxy)benzo[c]-2,7-naphthyridin-4-amine]",508,225,–,> 10000,–,255
"COc1cc2c(cc1OCCCN1CCCC1)ncc1c(N)nc(-c3cccnc3)cc12 [Ia-31, 9-Methoxy-2-pyridin-3-yl-8-(3-pyrrolidin-1-ylpropoxy)benzo[c]-2,7-naphthyridin-4-amine]",120,170,422,> 20000,> 2000,–
"COc1cc2ncc3c(N)nc(-c4cncc(OC[C@H](N)Cc5ccc(F)cc5)c4)cc3c2cc1OC [Ib-47, 2-(5-{[(2R)-2-amino-3-(4-fluorophenyl)propyl]oxy}pyridin-3-yl)-8,9-dimethoxybenzo[c]-2,7-naphthyridin-4-amine]",15,12,93,25,251,–
"COc1cc2ncc3c(N)nc(-c4cncc(OC[C@@H](N)CN5CCc6ccccc6C5)c4)cc3c2cc1OC [Ib-50, 2-(5-{[(2S)-2-amino-3-(3,4-dihydroisoquinolin-2(1H)-yl)propyl]oxy}pyridin-3-yl)-8,9-dimethoxybenzo[c]-2,7-naphthyridin-4-amine]",61,160,220,2100,> 2000,–
"COc1cc2ncc3c(N)nc(-c4cncn4C)cc3c2cc1OC [Ib-63, 8,9-Dimethoxy-2-(1-methyl-1H-imidazol-5-yl)benzo[c]-2,7-naphthyridin-4-amine]",66,400,1270,> 20000,> 2000,–
"COc1cc2c(cc1OCCCCl)ncc1c(N)nc(-n3ccnc3)cc12 [Ia-17, 8-(3-Chloropropoxy)-2-(1H-imidazol-1-yl)-9-methoxybenzo[c][2,7]naphthyridin-4-amine]",105,280,> 2000,> 10000,> 2000,–
"COCCN(C)C[C@H](N)COc1cncc(-c2cc3c(cnc4cc(OC)c(OC)cc43)c(N)n2)c1 [Ib-38, (2S)-3-{[5-(4-amino-8,9-dimethoxybenzo[c]-2,7-naphthyridin-2-yl)pyridin-3-yl]oxy}-N1-(2-methoxyethyl)-N1-methylpropane-1,2-diamine]",9,–,213 to 365,210,1040,–
